Biological target: T1, T790M/L858R transformed Ba/F3 cells (Homo sapiens, UniProt P00533, T790M/L858R, cells depend on it)
T1 construct: The constructs were shuttled into the retroviral vector JP 1540 using the BD Creator™ System (BD Biosciences)
Experiment: Ba/F3 cell proliferation (MTS) assay, T790M/L858R
Type: cell-based, murine
Settings: compound at 1 μM, inhibition of growth as percent of control
Source text: The EGFR mutant L858R, Del E746_A750, L858R/T790M, DelE746_A750/T790M, L858R/T790M/C797S and Del/T790M/C797S Ba/F3 cells have been previously described (Zhou, W., Ercan, D., Chen, L., Yun, C. H., Li, D., Capelletti, M., Cortot, A. B., Chirieac, L., Iacob, R. E., Padera, R., et al. “Novel mutant-selective EGFR kinase inhibitors against EGFR T790M,” Nature 462, (2009), 1070-1074). All cell lines were maintained in RPMI 1640 (Cellgro; Mediatech Inc., Herndon, Calif.) supplemented with 10% FBS 100 units/mL penicillin, 100 units/mL streptomycin, and 2 mM glutamine. L858R cells were maintained in ACL-4 media (Invitrogen, Carlsbad, Calif.) supplemented with 5% FBS, 100 units/mL penicillin, 100 units/mL streptomycin, and 2 mM glutamine. The EGFR I941R mutation was introduced via site directed mutagenesis using the Quick Change Site-Directed Mutagenesis kit (Stratagene; La Jolla, Calif.) according to the manufacturer's instructions. All constructs were confirmed by DNA sequencing. The constructs were shuttled into the retroviral vector JP 1540 using the BD Creator™ System (BD Biosciences). Ba/F3 cells were infected with retrovirus and according to standard protocols, as described previously (Zhou et al, Nature 2009). Stable clones were obtained by selection in puromycin (2 μg/ml).
Growth and inhibition of growth was assessed by MTS assay and was performed according to previously established methods (Zhou et al., Nature 2009). The MTS assay is a colorimetric method for determining the number of viable cells that is based on the bioreduction of MTS by cells to a formazan product that is soluble in cell culture medium and can be detected spectrophotometrically. Ba/F3 cells of different EGFR genotypes were exposed to treatment for 72 hours and the number of cells used per experiment determined empirically and has been previously established (Zhou et al., Nature 2009). All experimental points were set up in six wells and all experiments were repeated at least three times. […] The curves were fitted using a non-linear regression model with a sigmoidal dose response.
Compounds of Table 1 were tested at a concentration of 1 μM against T790M/L858R transformed Ba/F3 cells. The assay, as described in Example 42, measured inhibition of growth as a percent of the inhibitory activity of the control. In Table 1, A is 0<% control <25, B is 25<% control <50, C is 50<% control <75, and D is 75<% control.
Compounds of Table 2 were tested in a T790M/L858R transformed Ba/F3 cell line as described in Example 42 and the EC50 values were calculated. In Table 2, A is EC50<500 nM, B is 500 nM<EC50<1000 nM, C is 1000 nM<EC50<5000 nM, and D is 5000 nM<EC50.

T1 sequence (P00533 whole entry T790M/L858R): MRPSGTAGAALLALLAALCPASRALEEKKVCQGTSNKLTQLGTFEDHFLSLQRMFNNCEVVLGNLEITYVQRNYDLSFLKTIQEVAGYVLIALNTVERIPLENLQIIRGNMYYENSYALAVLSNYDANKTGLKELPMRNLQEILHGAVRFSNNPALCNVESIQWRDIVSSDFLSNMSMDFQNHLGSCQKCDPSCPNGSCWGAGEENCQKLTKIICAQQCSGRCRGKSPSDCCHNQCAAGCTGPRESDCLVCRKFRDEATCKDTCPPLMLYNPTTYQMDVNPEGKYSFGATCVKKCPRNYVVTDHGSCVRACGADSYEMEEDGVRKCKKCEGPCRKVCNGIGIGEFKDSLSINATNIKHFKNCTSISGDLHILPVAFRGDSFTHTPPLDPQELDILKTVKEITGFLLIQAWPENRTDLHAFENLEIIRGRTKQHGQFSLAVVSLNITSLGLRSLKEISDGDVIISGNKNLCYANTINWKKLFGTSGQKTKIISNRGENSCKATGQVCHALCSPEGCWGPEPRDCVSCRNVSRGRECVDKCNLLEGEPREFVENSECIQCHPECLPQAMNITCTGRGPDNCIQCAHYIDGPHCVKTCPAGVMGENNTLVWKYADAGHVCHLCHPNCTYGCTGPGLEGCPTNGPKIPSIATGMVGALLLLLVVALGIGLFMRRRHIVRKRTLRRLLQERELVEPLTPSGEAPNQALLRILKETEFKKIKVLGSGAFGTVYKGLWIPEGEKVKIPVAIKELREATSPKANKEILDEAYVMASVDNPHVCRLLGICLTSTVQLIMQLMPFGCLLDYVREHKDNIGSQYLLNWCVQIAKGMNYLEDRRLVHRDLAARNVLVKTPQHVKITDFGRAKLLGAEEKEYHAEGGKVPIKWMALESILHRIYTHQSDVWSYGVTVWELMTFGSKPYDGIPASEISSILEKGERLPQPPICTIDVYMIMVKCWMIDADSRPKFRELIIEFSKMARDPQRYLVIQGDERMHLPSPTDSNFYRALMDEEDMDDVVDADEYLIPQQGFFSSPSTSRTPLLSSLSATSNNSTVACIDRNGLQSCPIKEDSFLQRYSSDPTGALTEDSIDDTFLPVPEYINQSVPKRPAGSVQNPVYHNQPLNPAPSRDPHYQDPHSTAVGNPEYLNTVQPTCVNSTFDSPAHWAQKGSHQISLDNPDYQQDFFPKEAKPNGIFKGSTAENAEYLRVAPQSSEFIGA

% control	SMILES
B (B is 25<% control <50)	O=C1CCC(N2C(=O)c3cccc(NCCOCCOCCC(=O)N4CCN(c5ccc(-c6ccc7c(c6)C(=O)N(C(C(=O)Nc6nccs6)c6ccccc6)C7)cc5)CC4)c3C2=O)C(=O)N1 (stereo not shown) [Compound I-7, 2-(6-(4-(4-(3-(2-(2-((2-(2,6-Dioxopiperidin-3-yl)-1,3-dioxoisoindolin-4-yl)amino)ethoxy)ethoxy)propanoyl)piperazin-1-yl)phenyl)-1-oxoisoindolin-2-yl)-2-phenyl-N-(thiazol-2-yl)acetamide]
D (D is 75<% control)	O=C1CCC(N2C(=O)c3cccc(NCCOCCC(=O)N4CCN(c5ccc(-c6ccc7c(c6)C(=O)N(C(C(=O)Nc6nccs6)c6ccccc6)C7)cc5)CC4)c3C2=O)C(=O)N1 (stereo not shown) [Compound I-8, 2-(6-(4-(4-(3-(2-((2-(2,6-Dioxopiperidin-3-yl)-1,3-dioxoisoindolin-4-yl)amino)ethoxy)propanoyl)piperazin-1-yl)phenyl)-1-oxoisoindolin-2-yl)-2-phenyl-N-(thiazol-2-yl)acetamide]
C (C is 50<% control <75)	O=C1CCC(N2C(=O)c3cccc(NCCCCCCN4CCN(c5ccc(-c6ccc7c(c6)C(=O)N(C(C(=O)Nc6nccs6)c6ccccc6)C7)cc5)CC4)c3C2=O)C(=O)N1 (stereo not shown) [Compound I-17, 2-(6-(4-(4-(6-((2-(2,6-Dioxopiperidin-3-yl)-1,3-dioxoisoindolin-4-yl)amino)hexyl)piperazin-1-yl)phenyl)-oxoisoindolin-2-yl)2-phenyl-N-(thiazol-2-yl)acetamide]
D (D is 75<% control)	O=C1CCC(N2C(=O)c3cccc(NCCCCCCCCN4CCN(c5ccc(-c6ccc7c(c6)C(=O)N(C(C(=O)Nc6nccs6)c6ccccc6)C7)cc5)CC4)c3C2=O)C(=O)N1 (stereo not shown) [Compound I-19, 2-(6-(4-(4-(8-((2-(2,6-Dioxopiperidin-3-yl)-1,3-dioxoisoindolin-4-yl)amino)octyl)piperazin-1-yl)phenyl)-1-oxoisoindolin-2-yl)-2-phenyl-N-(thiazol-2-yl)acetamide]
C (C is 50<% control <75)	O=C1CCC(N2C(=O)c3cccc(NCCOCCOCCN4CCN(c5ccc(-c6ccc7c(c6)C(=O)N(C(C(=O)Nc6nccs6)c6ccccc6)C7)cc5)CC4)c3C2=O)C(=O)N1 (stereo not shown) [Compound I-21, 2-(6-(4-(4-(2-(2-(2-((2-(2,6-Dioxopiperidin-3-yl)-1,3-dioxoisoindolin-4-yl)amino)ethoxy)ethoxy)ethyl)piperazin-1-yl)phenyl)-1-oxoisoindolin-2-yl)-2-phenyl-N-(thiazol-2-yl)acetamide]
D (D is 75<% control)	Cc1ncsc1-c1ccc(CNC(=O)[C@@H]2C[C@@H](O)CN2C(=O)[C@@H](NC(=O)CCOCCOCCOCCC(=O)N2CCN(c3ccc(-c4ccc5c(c4)C(=O)N(C(C(=O)Nc4nccs4)c4ccccc4)C5)cc3)CC2)C(C)(C)C)cc1 (stereo partly drawn) [Compound I-25, (2S,4R)-1-((2S)-2-(tert-Butyl)-4,16-dioxo-16-(4-(4-(3-oxo-2-(2-oxo-1-phenyl-2-(thiazol-2-ylamino)ethyl)isoindolin-5-yl)phenyl)piperazin-1-yl)-7,10,13-trioxa-3-azahexadecanoyl)-4-hydroxy-N-(4-(4-methylthiazol-5-yl)benzyl)pyrrolidine-2-carboxamide]
D (D is 75<% control)	Cc1ncsc1-c1ccc(CNC(=O)[C@@H]2C[C@@H](O)CN2C(=O)[C@@H](NC(=O)CCOCCOCCOCCC(=O)N2CCN(c3ccc(-c4ccc5c(c4)C(=O)N(C(C(=O)Nc4nccs4)c4cc(F)ccc4O)C5)cc3)CC2)C(C)(C)C)cc1 (stereo partly drawn) [Compound I-26, (2S,4R)-1-((2S)-2-(tert-Butyl)-16-(4-(4-(2-(1-(5-fluoro-2-hydroxyphenyl)-2-oxo-2-(thiazol-2-ylamino)ethyl)-3-oxoisoindolin-5-yl)phenyl)piperazin-1-yl)-4,16-dioxo-7,10,13-trioxa-3-azahexadecanoyl)-4-hydroxy-N-(4-(4-methylthiazol-5-yl)benzyl)pyrrolidine-2-carboxamide]
